Measured values as given in patent publication US12427151B2, “Compositions and method of treating cancer” (The Regents of the University of California, priority 2017, dated 2025).

Tested on: L5178Y tk+/- mouse lymphoma cells
Assay: Mutagenic activity at the thymidine kinase (tk) locus
Type: cell-based
Conditions: compared to vehicle
Procedure: Because some nucleobase analogs exert mutagenic activities due to their misrecognition of wrong bases, mutagenic activity of 6-HAP was determined by detecting mutagenic events at the thymidine kinase (tk) locus of L5178Y tk^+/− mouse lymphoma cells.

COS(C)(=O)=O [methyl methanesulfonate, reference compound] was tested, and the “mutagenic activity, mutation frequency at tk locus” value was “did induce a high mutation frequency”.
